Measured values as given in PMC12617972, “Inhibition of human cytomegalovirus replication by valaciclovir” (The Journal of General Virology, 2025).
“Also recorded” adds a separate entry of the source. Where two headings read alike, the source gives them in different places.

Columns and labels:
[1] = system: HSV-1 strain 17+; experiment: Virus yield assay, HSV in HFF cells; format: cell-based, herpes simplex virus; details: HFF (adult fibroblast) cells, MOI 1, 48 h post-infection
[2] = system: HCMV strain Merlin (R1111); experiment: microbe, parasite or virus in culture; format: cell-based, human cytomegalovirus; details: for anti-HCMV activity in HFFF cells relative to other cell lines: HFFF cells vs HFF and SGHPL-4 cells; for EC50: read-out: 50% effective dose (EC50), anti-HCMV activity
[3] = system: HCMV; details: previous studies; cited from earlier work
[4] = system: uninfected cell; design: method as in PMID 16492567; details: cited from earlier work
[5] = system: HFF cells; details: uninfected HFF cells, 96 h, high and low cell numbers
[6] = system: HFFF cells; details: uninfected HFFF cells, 96 h, high and low cell numbers
[7] = system: SGHPL-4 cells; details: uninfected SGHPL-4 cells, 96 h, high and low cell numbers, 0.5% FBS
[8] = 2,000 mg dose; calculated with ChatGPT3 as Cmax × 1,000/molecular weight from commonly used literature Cmax values; cited from earlier work
[9] = system: HCMV; design: method as in PMID 32919517; details: high doses administered during pregnancy, clinical trial; cited from earlier work
[10] = 2,000 mg/6 h; cited from earlier work
[11] = HFF, HFFF and SGHPL-4 cells, MOI 1, 96 h
[12] = Human betaherpesvirus 5, Fibroblast, 96 h

| SMILES | 50% effective dose (EC50), anti-HSV activity [1] | anti-HCMV effects compared to GCV [2, 11] | anti-HCMV activity in HFFF cells relative to other cell lines ([2]; MOI 1, 96 h) | EC50 [2, 12] [nM] | difference between GCV and ACV inhibition of HCMV ([2]; found here, HFF cells) | difference between GCV and ACV anti-HCMV effects in vitro [3] | effect on uninfected cell viability in vitro [4] | inhibition of HCMV replication in each cell line ([2]; HFF, HFFF and SGHPL-4 cells, lower drug concentration, MOI 1, 96 h) | EC50 ([2]; Human betaherpesvirus 5, HFF (adult fibroblast) cells, MOI 1, 96 h post-infection, virus yield) [nM] | effect on cell viability and cell division (MTT) [5] | effect on cell viability and cell division (MTT) [6] | effect on cell viability and cell division (MTT) [7] | plasma concentration [8] [µM] | inhibition of HCMV foetal infection [9] | tolerability in patients [10] |
| --- | --- | --- | --- | --- | --- | --- | --- | --- | --- | --- | --- | --- | --- | --- | --- |
| Nc1nc2c(ncn2COCCO)c(=O)[nH]1 [ACV, aciclovir] | well below micromolar concentrations | less anti-HCMV effects compared to GCV | less than in HFF and SGHPL-4 cells | 2700 | – | – | – | – | – | – | – | – | – | – | – |
| Nc1nc(O)c2ncn(COC(CO)CO)c2n1 [GCV, ganciclovir] | well below micromolar concentrations | – | – | 500 | approximately fivefold difference | approximately tenfold difference; also recorded: approximately tenfold greater | little or no effect | – | – | – | – | – | – | – | – |
| CC(C)[C@H](N)C(=O)OCCOCn1cnc2c(=O)[nH]c(N)nc21 [VACV, valaciclovir] | – | less anti-HCMV effects compared to GCV | less than in HFF and SGHPL-4 cells | – | – | – | – | inhibitor of HCMV in all cell lines | 3400 | no obvious effect on cell viability | no obvious effect on cell viability | no obvious effect on cell viability | 35 to 40 | notable inhibition of HCMV foetal infection | well tolerated by patients, without toxicity |
